Patent US20240217968A1, “PHARMACEUTICAL COMPOUND” (DUKE STREET BIO LIMITED, priority 2021, published 2024)

Target: T1, recombinant human Flag-tagged PARP7 (amino acids 456-657) (Homo sapiens, UniProt Q7Z3E1)
T1 construct: recombinant human Flag-tagged PARP7 (amino acids 456-657)
T1 sequence (Q7Z3E1 456-657): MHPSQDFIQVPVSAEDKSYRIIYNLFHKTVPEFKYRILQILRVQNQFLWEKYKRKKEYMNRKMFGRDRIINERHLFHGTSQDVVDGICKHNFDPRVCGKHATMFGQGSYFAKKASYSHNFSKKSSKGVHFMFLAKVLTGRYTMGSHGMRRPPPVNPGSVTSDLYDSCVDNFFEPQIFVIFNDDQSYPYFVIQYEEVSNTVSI
Assay: PARP7 biochemical DELFIA assay (auto-MARylation)
Details: DELFIA readout, IC50 class
Experimental: A suitable assay may be conducted using 10-30 nM PARP7 (amino acids 456-657), 2 μM biotin-NAD assay solution in 20 mM HEPES (pH 7.5), 100 mM NaCl, 2 mM DTT, 0.1% BSA (w/v), 0.02% Tween (v/v) assay buffer. MARylation may take place for 2-3 h at room temperature and may be detected using a dissociation-enhanced lanthanide fluorescence immunoassay (DELFIA) readout. This assay format has been recently utilised for screening for modulators of PARP7 and other MonoPARP enzymes ([…]. et al. Forced Self-Modification Assays as a Strategy to Screen MonoPARP Enzymes. SLAS Discovery. 25; 241-252, (2020)). A particularly suitable assay is described in the Examples below. Optiplate HB 384-well plates were coated with anti-FLAG antibody, supplied as a 4 mg/ml solution, using a Na2CO3/HCO3 coating buffer at pH 9.6, overnight at 4° C., in order to achieve a final immobilisation per well of 0.3 μg. Wells were then washed 3× in coating wash buffer (PBS/0.05% Tween (v/v)), blocked with 2% BSA (w/v) in coating wash buffer and washed 3 further times prior to assay. For the assay 20 μl of 12.5-37.5 nM recombinant human Flag-tagged PARP7 (amino acids 456-657) was added to each well of the 384-well plate for 30 min at room temperature. 50 nl of test compound in DMSO was added using pintool technology and plates were incubated for a further 30 min at room temperature. 5 μl of 15 μM biotin-NAD^+ assay solution in 20 mM HEPES (pH 7.5), 100 mM NaCl, 2 mM DTT, 0.1% BSA (w/v), 0.02% Tween (v/v) assay buffer was then added and MARylation proceeded for 2-3 h at room temperature prior to the addition of 5 μl of 12 mM NAD^+ quenching solution. After 30 min at room temperature, assay solution was removed and following washing 5 times, 100 μl of a 1:1000 dilution of DELFIA Eu-N1 Streptavidin reagent was added. Plates were then incubated for 30 min at room temperature. Reaction mixture was removed and plates washed 5 times prior to the addition of 25 μl DELFIA enhancement solution. Following incubation for 30 min at room temperature, fluorescence was read on either an Envision or Pherastar FS (Ex337 nm, Em620 nm).

SMILES | IC50 [nM]
O=C(CCCOc1cccc2c(=O)[nH]ncc12)N1CCN(c2ncc(C(F)(F)F)cn2)CC1 [Compound 37] | 1000 to 10000
CC(CCOCC(=O)N1CCN(c2ncc(Cl)cn2)CC1)n1nc(C(F)(F)F)c2c(=O)[nH]ncc21 (stereo not shown) [Compound 452] | ≤ 100
O=C(CCOCCn1ncc2c(=O)[nH]ncc21)N1CCN(c2ncc(Cl)cn2)CC1 [Compound 147] | ≤ 100
O=C(CCOCCN1CCOc2c1cn[nH]c2=O)N1CCN(c2ncc(C(F)(F)F)cn2)CC1 [Compound 12] | 100 to 1000
O=C(CCOCCn1nc(C2CC2)c2c(=O)[nH]ncc21)N1CCN(c2ncc(C(F)(F)F)cn2)CC1 [Compound 333] | ≤ 100
O=C(CCOCCc1cccc2c(=O)[nH]ncc12)N1CCN(c2ncc(Cl)cn2)CC1 [Compound 100] | ≤ 100
O=C(CCOCCc1cc(F)cc2c(=O)[nH]ncc12)N1CCN(c2ncc(C(F)(F)F)cn2)CC1 [Compound 82] | ≤ 100
N#Cc1ccc(N2CCN(C(=O)c3ccc(COc4cccc5c(=O)[nH]ncc45)cc3)CC2)nc1 [Compound 41] | 1000 to 10000
NCc1cc2c(=O)[nH]ncc2n1CCOCCC(=O)N1CCN(c2ncc(C(F)(F)F)cn2)CC1 [Compound 136] | 100 to 1000
O=C1NCCc2c1ccn2CCOCCC(=O)N1CCN(c2ncc(C(F)(F)F)cn2)CC1 [Compound 56] | 1000 to 10000
Cc1nn(C(C)COCCC(=O)N2CCN(c3ncc(Cl)cn3)CC2)c2cn[nH]c(=O)c12 (single isomer, unassigned) [Compound 335] | ≤ 100
O=C(COCCNc1cccc2c(=O)[nH]cnc12)N1CCN(c2ncc(C(F)(F)F)cn2)CC1 [Compound 17] | 1000 to 10000
N#Cc1ccc(N2CCN(C(=O)c3cccc(OCCc4cccc5c(=O)[nH]ncc45)c3)CC2)nc1 [Compound 42] | ≤ 100
O=C(CCOCCN1C(=O)CCc2c1cn[nH]c2=O)N1CCN(c2ccc(Cl)cn2)CC1 [Compound 261] | ≤ 100
CC1CN(C(=O)CCOCCc2cccc3c(=O)[nH]ncc23)CCN1c1ccc(C#N)cn1 (stereo not shown) [Compound 91] | ≤ 100
O=C(CCOCCc1cccc2c(=O)[nH]ncc12)N1CCC(c2ccc(Cl)cn2)CC1 [Compound 118] | 100 to 1000
O=C(CCOCCc1cccc2c(=O)[nH]ncc12)N1CCN(c2nc3ccccc3o2)CC1 [Compound 146] | ≤ 100
O=C(CCOCCn1nc(C(F)(F)F)c2c(=O)[nH]ncc21)N1CCN(c2ncc(Cl)cn2)CC1 [Compound 285] | ≤ 100
O=C(CCOCCc1cccc2c(=O)[nH]ncc12)N1CCN(c2ccc(OC(F)(F)F)cn2)CC1 [Compound 114] | ≤ 100
O=C(COCCOc1cccc2c(=O)[nH]cnc12)N1CCN(c2ncc(C(F)(F)F)cn2)CC1 [Compound 15] | 100 to 1000

Other lines, results leading:

IC50 [nM] | SMILES
100 to 1000 | CC(COCCC(=O)N1CCN(c2ncccc2C#N)CC1)n1nc(C(F)(F)F)c2c(=O)[nH]ncc21 (single isomer, unassigned) [Compound 405]
≤ 100 | Cc1nn(CCOCCC(=O)N2CCN(c3ncc(C(F)(F)F)cn3)CC2)c2cn[nH]c(=O)c12 [Compound 127]
≤ 100 | CNC(=O)c1cnc(N2CCN(C(=O)CCOCC(C)n3nc(C(F)(F)F)c4c(=O)[nH]ncc43)CC2)nc1 (single isomer, unassigned) [Compound 326]
≤ 100 | CC(COCCC(=O)N1CCN(c2ncccc2C#N)CC1)n1nc(C(F)(F)F)c2c(=O)[nH]ncc21 (single isomer, unassigned) [Compound 406]
≤ 100 | CC(COCCC(=O)N1CCN(c2ccc(C#N)cn2)CC1)n1nc(C(F)F)c2c(=O)[nH]ncc21 (stereo not shown) [Compound 438]
≤ 100 | CC(COCCC(=O)N1CCN(c2ccc(OC(F)(F)F)cn2)CC1)n1nc(C(F)(F)F)c2c(=O)[nH]ncc21 (single isomer, unassigned) [Compound 254]
≤ 100 | CC(COCCC(=O)N1CCN(c2ncc(F)cc2F)CC1)n1nc(C(F)(F)F)c2c(=O)[nH]ncc21 (single isomer, unassigned) [Compound 350]
≤ 100 | CC(COCCC(=O)N1CCN(c2cnc(C#N)cn2)CC1)n1nc(C(F)(F)F)c2c(=O)[nH]ncc21 (stereo not shown) [Compound 312]
≤ 100 | CC(COCCC(=O)N1CCN(c2ncc(OC(F)F)cn2)CC1)n1nc(C(F)(F)F)c2c(=O)[nH]ncc21 (single isomer, unassigned) [Compound 294]
≤ 100 | CC(COCCC(=O)N1CCN(c2cnc(C(F)(F)F)cn2)CC1)n1nc(C(F)(F)F)c2c(=O)[nH]ncc21 (stereo not shown) [Compound 267]
100 to 1000 | CC(CCOCC(=O)N1CCN(c2ccc(C#N)cn2)CC1)n1cc(C(F)(F)F)c2c(=O)[nH]ncc21 (single isomer, unassigned) [Compound 495]
≤ 100 | CC(COCCC(=O)N1CCN(c2ccc(C(F)(F)F)cn2)CC1)n1cc(C(F)(F)F)c2c(=O)[nH]ncc21 (stereo not shown) [Compound 377]
≤ 100 | N#Cc1cn(CCOCCC(=O)N2CCN(c3ncc(C(F)(F)F)cn3)CC2)c2cn[nH]c(=O)c12 [Compound 340]
100 to 1000 | CC(COCCC(=O)N1CCN(c2nnc(C(F)(F)F)[nH]2)CC1)n1nc(C(F)(F)F)c2c(=O)[nH]ncc21 (stereo not shown) [Compound 392]
≤ 100 | O=C(CCOCCn1nc(C(F)(F)F)c2c(=O)[nH]ncc21)N1CCN(c2ccc(C3CC3)cn2)CC1 [Compound 300]
≤ 100 | CC(COCCC(=O)N1CCN(c2ncc(C(C)(C)C)cn2)CC1)n1nc(C(F)(F)F)c2c(=O)[nH]ncc21 (single isomer, unassigned) [Compound 500]
≤ 100 | O=C(CCOCCN1C(=O)CCc2c1cn[nH]c2=O)N1CCN(c2ccc(C(F)(F)F)cn2)CC1 [Compound 240, 1-(2-(3-oxo-3-(4-(5-(trifluoromethyl)pyridin-2-yl)piperazin-1-yl)propoxy)ethyl)-4,6-dihydropyrido[2,3-d]pyridazine-2,5(1H,3H)-dione]
≤ 100 | CC(COCCC(=O)N1CCN(c2ncc(C(F)(F)F)cn2)CC1)n1nc(C(F)(F)F)c2c(=O)[nH]ncc21 (single isomer, unassigned) [Compound 176, 1-(1-(3-oxo-3-(4-(5-(trifluoromethyl)pyrimidin-2-yl)piperazin-1-yl)propoxy)propan-2-yl)-3-(trifluoromethyl)-1,5-dihydro-4H-pyrazolo[3,4-d]pyridazin-4-one]
≤ 100 | CC(COCCC(=O)N1CCN(c2cc(C(F)(F)F)ccn2)CC1)n1nc(C(F)(F)F)c2c(=O)[nH]ncc21 (stereo not shown) [Compound 352]
≤ 100 | CC(COCCC(=O)N1CCN(c2noc(C(F)(F)F)n2)CC1)n1nc(C(F)(F)F)c2c(=O)[nH]ncc21 (single isomer, unassigned) [Compound 344]
≤ 100 | [2H]C([2H])(OCCC(=O)N1CCN(c2ncc(C(F)(F)F)cn2)CC1)C(C)n1nc(C(F)(F)F)c2c(=O)[nH]ncc21 (stereo not shown) [Compound 422]
≤ 100 | Cc1cc(=O)n(CCOCCC(=O)N2CCN(c3ncc(C(F)(F)F)cn3)CC2)c2cn[nH]c(=O)c12 [Compound 470, 4-methyl-1-(2-(3-oxo-3-(4-(5-(trifluoromethyl)pyrimidin-2-yl)piperazin-1-yl)propoxy)ethyl)pyrido[2,3-d]pyridazine-2,5(1H,6H)-dione]
≤ 100 | CC(COCCC(=O)N1CCN(c2nc(C#N)cs2)CC1)n1nc(C(F)(F)F)c2c(=O)[nH]ncc21 (stereo not shown) [Compound 251]
100 to 1000 | CC(COCCC(=O)N1CCN(c2ncc(C(F)(F)F)cn2)CC1)c1ccc(Cl)c2c(=O)[nH]ncc12 (stereo not shown) [Compound 399]
≤ 100 | CC(CCOCC(=O)N1CCN(c2ncc(C(F)(F)F)cn2)CC1)n1cc(C(F)(F)F)c2c(=O)[nH]ncc21 (single isomer, unassigned) [Compound 455]
≤ 100 | CC(COCCC(=O)N1CCN(c2ccc(C(C)(F)F)cn2)CC1)n1cc(C(F)(F)F)c2c(=O)[nH]ncc21 (stereo not shown) [Compound 483]
≤ 100 | CC(COCCC(=O)N1CCN(c2ncc(C(F)(F)F)cn2)CC1)n1c(=O)n(C)c2c(=O)[nH]ncc21 (stereo not shown) [Compound 398]
≤ 100 | Cc1nn(C(C)COCCC(=O)N2CCN(c3ncc(C(F)(F)F)cn3)CC2)c2cn[nH]c(=O)c12 (stereo not shown) [Compound 246]
≤ 100 | CC(COCCC(=O)N1CCN(c2cnc(C(F)(F)F)cn2)CC1)n1nc(C(F)(F)F)c2c(=O)[nH]ncc21 (single isomer, unassigned) [Compound 266]
